Experimental data published in ChEMBL document CHEMBL1133129, “A focused compound library of novel N-(7-indolyl)benzenesulfonamides for the discovery of potent cell cycle inhibitors” (Bioorg Med Chem Lett, 2000).
Converted amounts (≈) assume the structure as drawn. The source made the active and inactive calls. The calls are words filed in the database; no cut-off is given here.

Legend:
MC-38 [1] = test: In vitro antiproliferative activity measured against colon 38 cancer cell line using MTT colorimetric assay; format: functional, cell-based; settings: Mus musculus
P388 [2] = test: In vitro antiproliferative activity measured against P388 cancer cell line using MTT colorimetric assay; format: functional, cell-based; settings: Mus musculus
P388 [3] = test: Effect on the cell cycle progression using P388 cells at 4.0 ug/mL for 24 hr; Effect:G2/M arrest & 4C-8C drug treated cells underwent an extra DNA replication without the completion of mitosis; format: functional, cell-based; settings: Mus musculus
KB [4] = test: In vitro antiproliferative activity measured against KB cancer cell line using MTT colorimetric assay; format: functional, cell-based; settings: Homo sapiens
P388 [5] = test: Effect on the cell cycle progression using P388 cells at 4.0 ug/mL for 24 hr; No effect; format: functional, cell-based; settings: Mus musculus
P388 [6] = test: Effect on the cell cycle progression using P388 cells at 4.0 ug/mL for 24 hr; G2/M arrest; format: functional, cell-based; settings: Mus musculus
Tubulin (Bos taurus) [7] = target: T1, Tubulin (Bos taurus) (UniProt Q6B856+Q862L2+Q862F3); test: Compound was tested against bovine brain tubulin polymerization; format: functional
P388 [8] = test: Effect on the cell cycle progression using P388 cells at 4.0 ug/mL for 24 hr; GI increase; format: functional, cell-based; settings: Mus musculus
MC-38 [9] = test: In vitro antiproliferative activity (4 ug/mL) was measured against colon 38 cancer cell line using MTT colorimetric assay; format: functional, cell-based; settings: Mus musculus
KB [10] = test: In vitro antiproliferative activity (4 ug/mL) was measured against KB cancer cell line using MTT colorimetric assay; format: functional, cell-based; settings: Homo sapiens
P388 [11] = test: Effect on the cell cycle progression using P388 cells at 4.0 ug/mL for 24 hr; G2/M increase; format: functional, cell-based; settings: Mus musculus
Tubulin (Bos taurus) [12] = target: T1, Tubulin (Bos taurus); test: Compound was tested against bovine brain tubulin polymerization; active; format: functional
P388 [13] = test: In vitro antiproliferative activity was measured against P388 cancer cell line using MTT colorimetric assay; settings: Mus musculus
P388 [14] = test: Effect on the cell cycle progression using P388 cells at 4.0 ug/mL for 24 hr; G2/M arrest & 4C-8C drug treated cells underwent an extra DNA replication without the completion of mitosis; format: functional, cell-based; settings: Mus musculus
P388 [15] = test: Concentration at which compound caused cellular accumulation in GI phase in P388 cells; format: functional, cell-based; settings: Mus musculus
Bos taurus = species on record: Bos taurus; test: Inhibitory activity against bovine microtubule assembly; format: functional

Row | IC50 (P388 [2]) [µg/mL] | IC50 (KB [4]) [µg/mL] | SMILES | IC50 (MC-38 [1]) [µg/mL] | Cell cycle analysis (P388 [8]) | also measured
1 | 1.1 (≈ 3.27 µM) | 0.92 (≈ 2.73 µM) | COc1ccc(S(=O)(=O)Nc2ccc(Cl)c3cc[nH]c23)cc1 | 0.65 (≈ 1.93 µM) |  | Cell cycle analysis (P388 [3]): Effect
2 |  |  | Nc1ccc(S(=O)(=O)Nc2cccc3cc[nH]c23)cc1 |  |  | Cell cycle analysis (P388 [5]): inactive
3 |  |  | COc1ccc(S(=O)(=O)Nc2cccc3cc[nH]c23)cc1 |  |  | Cell cycle analysis (P388 [3]): Effect
4 |  |  | COc1ccc(S(=O)(=O)Nc2cccnc2Nc2ccc(O)cc2)cc1 |  |  | Cell cycle analysis (P388 [6]): G2/M arrest; Activity (Tubulin (Bos taurus) [7]): Active
5 | 8.2 (≈ 25.8 µM) | 15 (≈ 47.3 µM) | O=[N+]([O-])c1ccc(S(=O)(=O)Nc2cccc3cc[nH]c23)cc1 | 7.2 (≈ 22.7 µM) |  | Cell cycle analysis (P388 [5]): inactive
6 | 4.3 (≈ 12.6 µM) | 8.8 (≈ 25.8 µM) | O=S(=O)(Nc1cccc2c(Cl)c[nH]c12)c1ccc(Cl)cc1 | 0.28 (≈ 0.821 µM) | GI increase | 
7 |  |  | O=S(=O)(Nc1cccc2cc(Cl)[nH]c12)c1ccc(Cl)cc1 |  |  | IC50 (MC-38 [9]): 10 µg/mL (≈ 29.3 µM); IC50 (KB [10]): 4 µg/mL (≈ 11.7 µM); Cell cycle analysis (P388 [11]): G2/M increase; Activity (Tubulin (Bos taurus) [12]): Active; IC50 (P388 [13]): 7.4 µg/mL (≈ 21.7 µM)
8 |  |  | COc1ccc(S(=O)(=O)Nc2cccc3cc(Cl)[nH]c23)cc1 |  |  | IC50 (MC-38 [9]): 0.17 µg/mL (≈ 0.505 µM); IC50 (KB [10]): 0.12 µg/mL (≈ 0.356 µM); Cell cycle analysis (P388 [6]): G2/M arrest; Activity (Tubulin (Bos taurus) [12]): Active; IC50 (P388 [13]): 0.11 µg/mL (≈ 0.327 µM)
9 | 13 (≈ 37 µM) | 12 (≈ 34.1 µM) | O=[N+]([O-])c1ccc(S(=O)(=O)Nc2cc(Cl)cc3cc[nH]c23)cc1 | 13 (≈ 37 µM) |  | Cell cycle analysis (P388 [5]): inactive
10 | 9.9 (≈ 29 µM) | 9.1 (≈ 26.7 µM) | O=S(=O)(Nc1cc(Cl)cc2cc[nH]c12)c1ccc(Cl)cc1 | 8.5 (≈ 24.9 µM) |  | Cell cycle analysis (P388 [5]): inactive
11 | 0.37 (≈ 1.1 µM) | 16 (≈ 47.6 µM) | Cc1ccc(NS(=O)(=O)c2ccc(N)cc2)c2[nH]cc(Cl)c12 | 0.1 (≈ 0.298 µM) | GI increase | 
12 | 0.59 (≈ 1.61 µM) | 13 (≈ 35.5 µM) | N#Cc1ccc(S(=O)(=O)Nc2ccc(Cl)c3c(Cl)c[nH]c23)cc1 | 0.12 (≈ 0.328 µM) | GI increase | 
13 | 19 (≈ 47.8 µM) | 15 (≈ 37.7 µM) | Nc1ccc(S(=O)(=O)Nc2ccc(-c3ccccc3)c3c(Cl)c[nH]c23)cc1 | 19 (≈ 47.8 µM) |  | Cell cycle analysis (P388 [5]): inactive
14 | 1.2 (≈ 3.96 µM) | 0.86 (≈ 2.84 µM) | Nc1ccc(S(=O)(=O)Nc2cccc3cc(O)[nH]c23)cc1 | 1.8 (≈ 5.93 µM) |  | Cell cycle analysis (P388 [14]): G2/M arrest
15 | > 100 | > 100 | O=[N+]([O-])c1ccc(S(=O)(=O)Nc2cccc3cc(O)[nH]c23)cc1 | 62 (≈ 186 µM) |  | Cell cycle analysis (P388 [5]): inactive
16 | 0.14 (≈ 0.436 µM) | 0.11 (≈ 0.343 µM) | Cc1ccc(S(=O)(=O)Nc2cccc3cc(Cl)[nH]c23)cc1 | 0.18 (≈ 0.561 µM) |  | Cell cycle analysis (P388 [6]): G2/M arrest
17 | 0.49 (≈ 1.38 µM) | 14 (≈ 39.3 µM) | Nc1ccc(S(=O)(=O)Nc2ccc(Cl)c3c(Cl)c[nH]c23)cc1 | 0.1 (≈ 0.281 µM) | GI increase | 

Row | IC50 (P388 [2]) [µg/mL] | IC50 (KB [4]) [µg/mL] | SMILES | IC50 (MC-38 [1]) [µg/mL] | Cell cycle analysis (P388 [8]) | also measured
18 |  |  | N#Cc1ccc(S(=O)(=O)Nc2cccc3c(Cl)c[nH]c23)cc1 |  | GI increase | 
19 |  |  | Cc1ccc(S(=O)(=O)Nc2cccc3cc(O)[nH]c23)cc1 |  |  | IC50 (MC-38 [9]): 0.17 µg/mL (≈ 0.562 µM); IC50 (KB [10]): 0.093 µg/mL (≈ 0.308 µM); Cell cycle analysis (P388 [6]): G2/M arrest; Activity (Tubulin (Bos taurus) [12]): Active; IC50 (P388 [13]): 0.14 µg/mL (≈ 0.463 µM)
20 | 0.27 (≈ 0.802 µM) | 0.21 (≈ 0.624 µM) | COc1ccc(S(=O)(=O)Nc2cc(Cl)cc3cc[nH]c23)cc1 | 0.64 (≈ 1.9 µM) |  | Cell cycle analysis (P388 [6]): G2/M arrest
21 | 0.51 (≈ 1.5 µM) | 14 (≈ 41.2 µM) | Nc1ccc(S(=O)(=O)Nc2ccc(F)c3c(Cl)c[nH]c23)cc1 | 0.11 (≈ 0.324 µM) | GI increase | 
22 | 0.11 (≈ 0.346 µM) | 0.1 (≈ 0.314 µM) | COc1ccc(S(=O)(=O)Nc2cccc3cc(O)[nH]c23)cc1 | 0.22 (≈ 0.691 µM) |  | Cell cycle analysis (P388 [6]): G2/M arrest
23 | 4.6 (≈ 13.5 µM) | 9.7 (≈ 28.4 µM) | O=S(=O)(Nc1ccc(Cl)c2cc[nH]c12)c1ccc(Cl)cc1 | 0.66 (≈ 1.93 µM) | GI increase | 
24 | 3.3 (≈ 9.38 µM) | 9.1 (≈ 25.9 µM) | O=[N+]([O-])c1ccc(S(=O)(=O)Nc2ccc(Cl)c3cc[nH]c23)cc1 | 0.67 (≈ 1.9 µM) | GI increase | 
25 | 5.5 (≈ 15.6 µM) | 20 (≈ 56.8 µM) | COc1ccc(NS(=O)(=O)c2ccc(N)cc2)c2[nH]cc(Cl)c12 | 2.3 (≈ 6.54 µM) |  | Cell cycle analysis (P388 [5]): inactive
26 | 21 (≈ 59.7 µM) | 18 (≈ 51.2 µM) | O=[N+]([O-])c1ccc(S(=O)(=O)Nc2cccc3cc(Cl)[nH]c23)cc1 | 19 (≈ 54 µM) |  | Cell cycle analysis (P388 [5]): inactive
27 | 0.64 (≈ 1.6 µM) | 13 (≈ 32.4 µM) | Nc1ccc(S(=O)(=O)Nc2ccc(Br)c3c(Cl)c[nH]c23)cc1 | 0.14 (≈ 0.349 µM) | GI increase | 
28 | 2.2 (≈ 6.84 µM) | 1.4 (≈ 4.35 µM) | Nc1ccc(S(=O)(=O)Nc2cccc3cc(Cl)[nH]c23)cc1 | 2.9 (≈ 9.01 µM) |  | Cell cycle analysis (P388 [14]): G2/M arrest
29 | 2.2 (≈ 6.82 µM) | 1.1 (≈ 3.41 µM) | O=S(=O)(Nc1cccc2cc(O)[nH]c12)c1ccc(Cl)cc1 | 4.5 (≈ 13.9 µM) |  | Cell cycle analysis (P388 [14]): G2/M arrest
30 | 1.8 (≈ 5.43 µM) | 15 (≈ 45.2 µM) | N#Cc1ccc(S(=O)(=O)Nc2ccc(Cl)c3cc[nH]c23)cc1 | 0.22 (≈ 0.663 µM) | GI increase | 
31 |  |  | O=S(=O)(Nc1cccc2cc[nH]c12)c1ccc(Cl)cc1 |  |  | Cell cycle analysis (P388 [5]): inactive
32 |  |  | COc1ccc(S(=O)(=O)Nc2cccc3c(Cl)c[nH]c23)cc1 |  |  | Cell cycle analysis (P388 [14]): G2/M arrest; Activity (Tubulin (Bos taurus) [12]): Active
33 |  |  | Nc1ccc(S(=O)(=O)Nc2cccc3c(Cl)c[nH]c23)cc1 |  | GI increase | Concentration (P388 [15]): 4 µg/mL; Concentration (Bos taurus): > 33.3 µg/mL
34 | 2.3 (≈ 6.54 µM) | 14 (≈ 39.8 µM) | O=[N+]([O-])c1ccc(S(=O)(=O)Nc2cccc3c(Cl)c[nH]c23)cc1 | 0.34 (≈ 0.967 µM) | GI increase | 
